Laboratory results published in BindingDB's records for doi:10.1021/jm8003587 (Tsukuba Research Institute, 2008).

Target: T1, Neuropeptide Y receptor type 5 (Homo sapiens, UniProt Q15761)
T1 sequence (Q15761 whole entry): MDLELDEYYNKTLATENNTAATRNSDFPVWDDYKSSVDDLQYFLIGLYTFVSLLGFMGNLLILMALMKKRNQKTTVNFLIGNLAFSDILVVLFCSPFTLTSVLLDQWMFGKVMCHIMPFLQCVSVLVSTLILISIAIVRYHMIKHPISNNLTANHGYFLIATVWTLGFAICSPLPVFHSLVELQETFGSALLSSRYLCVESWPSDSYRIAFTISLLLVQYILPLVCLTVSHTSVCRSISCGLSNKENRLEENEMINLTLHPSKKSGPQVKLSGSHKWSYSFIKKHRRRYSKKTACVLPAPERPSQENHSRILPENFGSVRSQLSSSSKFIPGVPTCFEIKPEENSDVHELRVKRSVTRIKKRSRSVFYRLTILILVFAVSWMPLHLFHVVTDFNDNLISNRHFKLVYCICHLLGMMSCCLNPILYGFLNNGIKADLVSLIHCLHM
Assay: Displacement of [125I]PYY from human recombinant neuropeptide Y5 receptor expressed in thymidine kinase deficient […] cells

Question: `COc1cccc2c1C(C1C(=O)CC(C)(C)CC1=O)C1=C(CC(C)(C)CC1=O)O2` (stereo unspecified) [9-(2-Hydroxy-4,4-dimethyl-6-oxocyclohexyl)-8-methoxy-3,3-dimethyl-2,3,4,9-tetrahydro-1H-xanthen-1-one] was tested. Which Ki did it give?
Answer: > 1000 nM
